From US7709645B2, “Pyrrolo-pyridine kinase modulators” (SGX Pharmaceuticals, Inc., priority 2004, dated 2010)
pIC50: −log10 of the molar value.

These compounds were tested against T1, T315I mutant form of BCR-ABL in Ba/F3 cells (Homo sapiens, UniProt P00519, T315I) (assay: Abl_T315I p-ELISA Cellular Assay (BCR-ABL phospho-ELISA)). Settings: 60-120 minutes incubation.
T1 construct: expressed in transfected cells; host or cells: Ba/F3 cells; the other entry of the earlier key: BCR (P11274, Breakpoint cluster region protein)
T1 sequence (P00519 242-493 T315I limits assumed): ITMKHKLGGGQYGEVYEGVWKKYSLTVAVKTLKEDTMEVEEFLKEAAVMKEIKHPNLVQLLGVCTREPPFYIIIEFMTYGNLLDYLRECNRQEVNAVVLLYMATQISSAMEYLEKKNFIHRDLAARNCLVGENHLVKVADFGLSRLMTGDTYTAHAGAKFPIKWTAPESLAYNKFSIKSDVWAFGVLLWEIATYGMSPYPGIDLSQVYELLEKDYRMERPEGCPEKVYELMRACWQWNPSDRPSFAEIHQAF
Assay type: cell-based
Description: Cells (Ba/F3 cells transfected with WT BCR-ABL, other kinases, or T315I, Y253F, M351T, E255K, or other mutant forms of BCR-ABL) were grown in the absence of IL-3 at least ½ week before the assay. The day before assay, the cells were fed with fresh media so that at the time of assay the cells were in log phase. Ba/F3 cells that had been grown in the absence of IL-3 for at least ½ week were resuspended in RPMI 1640 so that each well of a 96-well plate would contain approximately 200,000 cells. Cells were distributed in a 96-well plate containing serially diluted concentrations of test compounds. Cells were typically incubated with or without test compounds for 60-120 minutes at 5% CO2, 37° C. The incubation was performed with or without other additives such as 10% FCS or 50% human plasma. After incubation of compounds, lysis buffer was added and incubated for 10-15 minutes; the lysate was cleared by centrifugation.
To make the ELISA plate, commercially available Anti-ABL antibodies (e.g. (Ab-3, Calbiochem OP20) were prepared at a concentration of 0.125 μg/ml in coating buffer (0.1M Na-carbonate, pH 9.5), and plated at 10 ml per plate (12.5 μl 100 μg/ml Ab/10 ml). In a high binding multi-well plate, 100 μl Ab in coating buffer were added to each well, and each plate was covered with a plate seal and incubated overnight at 4° C.
Excess antibody was removed and the ELISA plate was washed 3-4 times with 200 μl of wash buffer (0.05% Tween in PBS, pH 7.4). 150 μl of lysate (see above) were transferred to the ELISA plate. Plates were sealed and incubated 2 hours at room temperature. The detection antibody (e.g. HRP conjugated anti-pTyr or unconjugated α-p-Y 4G10, Upstate) was prepared in assay diluent. The antibody was diluted 1:1000 (stock=2 μg/μl, 200 μg in 100 μl; f.c.=2 μg/ml) in assay diluent and 10 ml of diluted antibody per plate were added. The lysate was removed from the ELISA plates, and wells were washed four times with 200 μl of wash buffer per well. 100 μl of detection antibody was added to each well; the plate was covered, and incubated 1 hr at room temperature (21° C.). Excess detection antibody was removed from the ELISA plates, and the wells were washed four times with 200 μl of wash buffer per well.
If necessary, (i.e. for unconjugated anti-pTyr antibody) secondary antibody (goat anti-rabbit HRP) was diluted 1:3000 in assay diluent (3.33 μl per 10 ml diluent) and added at 10 ml of diluted antibody per plate. Excess secondary antibody was removed from the ELISA plate, and the plate was washed four times with 200 μl per well of wash buffer.
Substrate Reagent A and Substrate Reagent B (Pierce Cat#37070 SuperSignal ELISA Pico Chemiluminescent Substrate) were added immediately before use (10 ml resultant solution per plate). 100 μl substrate were added per well, mixed for 1 minute, and chemiluminescent signal was measured with a luminometer.

Compound | pIC50
O=C(c1cncc(-c2cnc3[nH]cc(-c4ccc5cc[nH]c5c4)c3c2)c1)N1CCOCC1 [AE14] | > 7.00
N#Cc1cc(-c2cnc3[nH]cc(-c4ccc5[nH]ccc5c4)c3c2)ccc1O [AE20] | > 7.00
c1cc2cc(-c3c[nH]c4ncc(-c5ccc6[nH]cnc6c5)cc34)ccc2[nH]1 [AE22] | 6.00 to 7.00
Oc1cccc(-c2cnc3[nH]cc(-c4ccc(O)c(F)c4)c3c2)c1 [AE48] | 6.00 to 7.00
Oc1cccc(-c2cnc3[nH]cc(-c4ccn[nH]4)c3c2)c1 [AE49] | 6.00 to 7.00
Nc1nc(-c2c[nH]c3ncc(-c4ccc5[nH]ccc5c4)cc23)cs1 [AE55] | > 7.00
COc1cc(-c2cnc3[nH]cc(-c4ccc(O)cc4)c3c2)ccc1O [AE58] | > 7.00

Other lines, results leading:

pIC50 | Compound
> 7.00 | CNC(=O)c1cncc(-c2cnc3[nH]cc(-c4ccccc4OC)c3c2)c1 [AE1]
6.00 to 7.00 | CNC(=O)c1cc(-c2cnc3[nH]cc(-c4ccccc4OC)c3c2)cs1 [AE2]
> 7.00 | COc1ccccc1-c1c[nH]c2ncc(-c3csc(C(=O)N(C)C)c3)cc12 [AE3]
6.00 to 7.00 | COc1ccccc1-c1c[nH]c2ncc(-c3cc[nH]c(=O)c3)cc12 [AE9]
6.00 to 7.00 | COc1ccccc1-c1c[nH]c2ncc(-c3ccc(S(N)(=O)=O)s3)cc12 [AE11]
6.00 to 7.00 | COc1ccccc1-c1c[nH]c2ncc(-c3cccc(S(C)(=O)=O)c3)cc12 [AE13]
> 7.00 | COc1ccccc1-c1c[nH]c2ncc(-c3ccc(O)c(CN4CCCN(C)CC4)c3)cc12 [AE41]
> 7.00 | COc1ccccc1-c1c[nH]c2ncc(-c3cccc(C(=N)N4CCCCC4)c3)cc12 [AE42]
> 7.00 | COc1cc(-c2cnc3[nH]cc(-c4ccccc4OC)c3c2)ccc1O [AE64]
